Measurements: patent US20250387352A1 (SpringWorks Therapeutics, Inc., priority 2024, published 2025)

Tests used:
[1] = Clinical pharmacokinetic parameters of mirdametinib (Table A); settings: human, in vivo
[2] = Metabolism and excretion of mirdametinib (radioactivity recovery); assay type: in vivo
[3] = system: NF1-associated plexiform neurofibromas (PNs); assay: Phase 2b trial of mirdametinib in adult and pediatric patients with NF1-associated inoperable plexiform neurofibromas: efficacy by BICR volumetric MRI (REiNS); assay type: in vivo, human
Method: Study treatment was administered orally at a twice daily (BID) dose specified in the table below. Dosing was on a 28-day Cycle (4-week course) with a 3 week on/1 week off schedule. The treatment period will last for up to 24 Cycles followed by a 30-day Safety Follow-Up period.
A partial response was defined as PN decrease ≥20% compared to baseline using centrally read MRI volumetric analysis.
The major efficacy outcome measure was confirmed objective response rate (ORR), defined as the percentage of patients with complete response (disappearance of the target PN) or confirmed partial response (≥20% reduction in PN volume confirmed at a subsequent tumor assessment within 2-6 months during the 24-cycle treatment phase). Responses were assessed by blinded independent central review (BICR) using volumetric magnetic resonance imaging (MRI) analysis per Response Evaluation in Neurofibromatosis and Schwannomatosis (REINS) criteria. A secondary efficacy objective was to determine the duration of response for patients who achieved a confirmed objective response.

Time to steady-state [1]: Approximately 6 days
Excretion: Radioactivity ([2]; In feces): In feces: 27%
Excretion: Radioactivity ([2]; In urine): In urine: 68%
Excretion: Unchanged mirdametinib ([2]; In urine): In urine: 0.7%
Excretion: Unchanged mirdametinib ([2]; In urine and feces): In urine and feces: 9%
SMILES: O=C(NOC[C@H](O)CO)c1ccc(F)c(F)c1Nc1ccc(I)cc1F (single isomer, unassigned) [mirdametinib]
median time to onset of response ([3]; adult cohort): 7.8 months
ORR also considering confirmed objective response after cycle 24 ([3]; adults): 45%
median time to onset of response ([3]; pediatric cohort): 7.9 months
ORR also considering confirmed objective response after cycle 24 ([3]; pediatric patients): 54%
